Test results from DBAASP.
Values after ≈ are worked out from the molar mass of the structure shown. Each block holds one molecule with its values, some of them ahead of it.

Assays:
Assay in all cases: ≥ marks a high value that may be exact or a test limit, other limits are often not marked, values filed in µg/mL are converted to µM
[1] = test system: Acinetobacter baumannii CCARM 12005
[2] = test system: Acinetobacter baumannii CCARM 12035
[3] = test system: Acinetobacter baumannii CCARM 12036
[4] = test system: Acinetobacter baumannii CCARM 12037
[5] = test system: Bacillus subtilis KCTC 1021
[6] = test system: Bacillus subtilis KCTC 1022
[7] = test system: Bacillus subtilis KCTC 3068
[8] = test system: Escherichia coli CCARM 1229
[9] = test system: Escherichia coli CCARM 1238
[10] = test system: Escherichia coli KCTC 1682
[11] = test system: Escherichia coli KCTC 2571
[12] = test system: Escherichia coli KCTC 2593
[13] = test system: Pseudomonas aeruginosa CCARM 2002
[14] = test system: Pseudomonas aeruginosa CCARM 2003
[15] = test system: Pseudomonas aeruginosa CCARM 2095
[16] = test system: Pseudomonas aeruginosa CCARM 2163
[17] = test system: Pseudomonas aeruginosa KCTC 1637
[18] = test system: Pseudomonas aeruginosa KCTC 2004
[19] = test system: Pseudomonas aeruginosa KCTC 2513
[20] = test system: Salmonella typhimurium CCARM 8003
[21] = test system: Salmonella typhimurium CCARM 8007
[22] = test system: Salmonella typhimurium CCARM 8009
[23] = test system: Salmonella typhimurium KCTC 1926
[24] = test system: Staphylococcus aureus CCARM 3089
[25] = test system: Staphylococcus aureus CCARM 3090
[26] = test system: Staphylococcus aureus CCARM 3108
[27] = test system: Staphylococcus aureus CCARM 3114
[28] = test system: Staphylococcus aureus CCARM 3126
[29] = test system: Staphylococcus aureus KCTC 1621
[30] = test system: Staphylococcus aureus KCTC 1916
[31] = test system: Staphylococcus aureus KCTC 3881
[32] = test system: Staphylococcus epidermidis KCTC 1917
[33] = test system: Bacillus subtilis PS832
[34] = test system: Escherichia coli DL7
[35] = test system: Klebsiella aerogenes ATCC 13048
[36] = test system: Staphylococcus epidermidis ATCC 12228
[37] = test system: Candida albicans FRR 5580
[38] = test system: Pseudomonas aeruginosa ATCC 9027
[39] = test system: Escherichia coli ATCC 25922
[40] = test system: Pseudomonas aeruginosa ATCC 27853
[41] = test system: Staphylococcus aureus ATCC 29313
[42] = test system: Xanthomonas axonopodis pv. glycines ISBF 327
[43] = test system: Staphylococcus aureus BCRC 10780
[44] = test system: Streptococcus pneumoniae BCRC 10794

MIC [1]: 2 µM (≈ 4.99 µg/mL)
MIC [2]: 2 µM (≈ 4.99 µg/mL)
MIC [3]: 2 µM (≈ 4.99 µg/mL)
MIC [4]: 2 µM (≈ 4.99 µg/mL)
MIC [5]: 4 µM (≈ 9.98 µg/mL)
MIC [6]: 1 µM (≈ 2.5 µg/mL)
MIC [7]: 4 µM (≈ 9.98 µg/mL)
MIC [8]: 8 µM (≈ 20 µg/mL)
MIC [9]: 8 µM (≈ 20 µg/mL)
MIC [10]: 2 µM (≈ 4.99 µg/mL)
MIC [11]: 2 µM (≈ 4.99 µg/mL)
MIC [12]: 2 µM (≈ 4.99 µg/mL)
MIC [13]: 2 µM (≈ 4.99 µg/mL)
MIC [14]: 2 µM (≈ 4.99 µg/mL)
MIC [15]: 2 µM (≈ 4.99 µg/mL)
MIC [16]: 2 µM (≈ 4.99 µg/mL)
MIC [17]: 4 µM (≈ 9.98 µg/mL)
MIC [18]: 4 µM (≈ 9.98 µg/mL)
MIC [19]: 8 µM (≈ 20 µg/mL)
MIC [20]: 8 µM (≈ 20 µg/mL)
MIC [21]: 8 µM (≈ 20 µg/mL)
MIC [22]: 8 µM (≈ 20 µg/mL)
MIC [23]: 8 µM (≈ 20 µg/mL)
MIC [24]: 8 µM (≈ 20 µg/mL)
MIC [25]: 8 µM (≈ 20 µg/mL)
MIC [26]: 8 µM (≈ 20 µg/mL)
MIC [27]: 8 µM (≈ 20 µg/mL)
MIC [28]: 8 µM (≈ 20 µg/mL)
MIC [29]: 1 µM (≈ 2.5 µg/mL)
MIC [30]: 1 µM (≈ 2.5 µg/mL)
MIC [31]: 2 µM (≈ 4.99 µg/mL)
MIC [32]: 2 µM (≈ 4.99 µg/mL)
Structure (SMILES): CC[C@H](C)[C@H](NC(=O)CNC(=O)[C@H](CCCN=C(N)N)NC(=O)[C@H](Cc1ccccc1)NC(=O)[C@@H](NC(=O)[C@H](Cc1cnc[nH]1)NC(=O)[C@H](Cc1cnc[nH]1)NC(=O)[C@H](Cc1ccccc1)NC(=O)[C@H](C)N)[C@@H](C)CC)C(=O)N[C@H](C(=O)N[C@@H](Cc1cnc[nH]1)C(=O)N[C@H](C(=O)NCC(=O)N[C@@H](CCCCN)C(=O)N[C@H](C(=O)N[C@H](C(=O)N[C@@H](Cc1cnc[nH]1)C(=O)N[C@@H](CCCN=C(N)N)C(=O)N[C@@H](CC(C)C)C(=O)N[C@H](C(=O)N[C@H](C(=O)NCC(=O)O)[C@@H](C)O)C(C)C)[C@@H](C)CC)[C@@H](C)O)C(C)C)C(C)C [AFHHIFRGIVHVGKTIHRLVTG]

MIC [33]: 2 µM (≈ 2.95 µg/mL)
MIC [34]: 8 µM (≈ 11.8 µg/mL)
MIC [35]: ≥ 32 µM
MIC [36]: 16 µM (≈ 23.6 µg/mL)
Structure (SMILES): CC[C@H](C)[C@H](NC(=O)[C@H](CCCN=C(N)N)NC(=O)[C@H](CCCCN)NC(=O)[C@H](CC(C)C)NC(=O)[C@H](CC(C)C)NC(=O)CNC(=O)[C@H](Cc1cnc[nH]1)NC(=O)[C@H](C)NC(=O)[C@@H](N)CC(=O)O)C(=O)N[C@@H](CCCCN)C(=O)N[C@H](C(=O)N[C@@H](CC(C)C)C(=O)N[C@@H](CC(C)C)C(N)=O)[C@@H](C)O [DAHGLLKRIKTLL]

MIC [37]: ≥ 134 µM
MIC [38]: 67.1 µM (≈ 125 µg/mL)
Structure (SMILES): CC(C)[C@H](NC(=O)[C@@H]1CCCN1C(=O)[C@@H](N)Cc1ccccc1)C(=O)N[C@H](C(=O)N[C@@H](Cc1c[nH]c2ccccc12)C(=O)N[C@@H](CCCN=C(N)N)C(=O)N[C@@H](Cc1c[nH]c2ccccc12)C(=O)N[C@@H](Cc1c[nH]c2ccccc12)C(=O)N[C@@H](CCCCN)C(=O)N[C@@H](Cc1c[nH]c2ccccc12)C(=O)N[C@@H](Cc1c[nH]c2ccccc12)C(=O)N[C@@H](CCCCN)C(=O)NCC(=O)O)[C@@H](C)O [FPVTWRWWKWWKG]

MIC [39]: 19 µM (≈ 45.9 µg/mL)
MIC [40]: 77 µM (≈ 186 µg/mL)
MIC [42]: 2 µM (≈ 4.83 µg/mL)
Structure (SMILES): CC[C@H](C)[C@H](NC(=O)CN)C(=O)NCC(=O)N[C@@H](CC(=O)O)C(=O)N[C@H](C(=O)N[C@@H](CC(C)C)C(=O)N[C@@H](CCCCN)C(=O)N[C@@H](CC(N)=O)C(=O)N[C@@H](CC(C)C)C(=O)N[C@@H](C)C(=O)N[C@@H](CCCCN)C(=O)N[C@@H](C)C(=O)N[C@@H](C)C(=O)NCC(=O)N[C@@H](CCCCN)C(=O)N[C@@H](C)C(=O)N[C@@H](C)C(=O)N[C@@H](CC(C)C)C(=O)N[C@@H](Cc1cnc[nH]1)C(=O)N[C@@H](C)C(=O)N[C@H](C(=O)NCC(=O)N[C@@H](CCC(=O)O)C(=O)N[C@@H](CO)C(=O)N[C@@H](CC(C)C)C(N)=O)C(C)C)[C@@H](C)CC [GIGDILKNLAKAAGKAALHAVGESL]
MIC [41]: 19 µM (≈ 45.9 µg/mL)

MIC [43]: ≥ 147 µM
MIC [44]: ≥ 147 µM
Structure (SMILES): CC[C@H](C)[C@H](NC(=O)[C@H](Cc1cnc[nH]1)NC(C)=O)C(=O)N[C@H](C(=O)N[C@@H](CCCCN)C(=O)NCC(=O)N[C@@H](CC(C)C)C(N)=O)[C@@H](C)CC [HIIKGL]
